SMILES strings stand for the structures.

Assay [1] has as its system SARS-CoV-2 Delta variant AY.1. The experiment in a line: microbe, parasite or virus in culture. Conditions: for mean log10(PFU/ml): AY.1; for IC50: Severe acute respiratory syndrome coronavirus 2, Calu-3, 48 h, read-out: IC50, live SARS-CoV-2 infection AY.1 (Delta). Type of assay: cell-based.
The subject of assay [2] is SARS-CoV-2 Omicron variant KP.3.1.1. The experiment in a line: microbe, parasite or virus in culture. The format is cell-based. The settings on record: for mean log10(PFU/ml): KP.3.1.1; for IC50: Severe acute respiratory syndrome coronavirus 2, Calu-3, 48 h, read-out: IC50, live SARS-CoV-2 infection KP.3.1.1.

Consider `CC(C)(C)NC(=O)N1CCN(C(=O)N2C(=O)C(CCCNC(=N)N)C2C(=O)O)CC1` (stereo not drawn) [BMS-262084], for which the “mean log10(PFU/ml)” value was 7.781 log10(PFU/ml) in assay [1] (concentration 5 nM); 5.891 log10(PFU/ml) in assay [1] (concentration 50 nM); 3.176 log10(PFU/ml) in assay [1] (concentration 500 nM); 2.572 log10(PFU/ml) in assay [1] (concentration 5000 nM); 2.538 log10(PFU/ml) in assay [1] (concentration 50000 nM); 7.893 log10(PFU/ml) in assay [2] (concentration 5 nM). In addition, the “mean log10(PFU/ml)” value was 4.129 log10(PFU/ml) in assay [2] (concentration 50 nM), 1.9 log10(PFU/ml) in assay [2] (concentration 500 nM), 1.699 log10(PFU/ml) in assay [2] (concentration 5000 nM) and 1.498 log10(PFU/ml) in assay [2] (concentration 50000 nM). The IC50 in assay [1] came to 8.66 nM; in assay [2], 8.03 nM.

For `CN(C)C(=O)COC(=O)Cc1ccc(OC(=O)c2ccc(NC(=N)N)cc2)cc1` [camostat], the “mean log10(PFU/ml)” value is 7.732 log10(PFU/ml) in assay [1] (concentration 5 nM); 7.059 log10(PFU/ml) in assay [1] (concentration 50 nM); 6.615 log10(PFU/ml) in assay [1] (concentration 500 nM); 4.492 log10(PFU/ml) in assay [1] (concentration 5000 nM); 3.6181 log10(PFU/ml) in assay [1] (concentration 50000 nM); 7.955 log10(PFU/ml) in assay [2] (concentration 5 nM). Moreover, the “mean log10(PFU/ml)” value in assay [2] (concentration 50 nM) is reported as 6.207 log10(PFU/ml); in assay [2] (concentration 500 nM), 5.0218 log10(PFU/ml); in assay [2] (concentration 5000 nM), 1.958 log10(PFU/ml); in assay [2] (concentration 50000 nM) it was 1.699 log10(PFU/ml). For the same compound, the results for the IC50 in assay [1] and in assay [2] were 22.1 nM and 38.3 nM, respectively.

Values taken from article PMC12307812 (Nature Communications, 2025).
